From patent US10023559B2 (Hoffmann-La Roche Inc., priority 2014, dated 2018) come the findings set out here.

One experiment has as its target rat TAAR1 (Rattus norvegicus (Rat), UniProt Q923Y9). As to the kind of experiment: Radioligand binding assay on rat TAAR1. To be noted: for Ki: read-out: Ki(μM) rat, rat TAAR1, HEK-293 membranes, second value of cell pair mouse/rat.
Another experiment deals with mouse TAAR1 (Mus musculus (Mouse), UniProt Q923Y8). The experiment is described as follows: Radioligand binding assay on mouse TAAR1.

Structures are written as SMILES.

By Ki is commonly meant a dissociation constant, usually derived from enzyme kinetics or from competition with a known ligand. Broadly, the Kd is a measure of binding affinity in units of concentration.

Sequence of rat TAAR1 (Q923Y9 whole entry): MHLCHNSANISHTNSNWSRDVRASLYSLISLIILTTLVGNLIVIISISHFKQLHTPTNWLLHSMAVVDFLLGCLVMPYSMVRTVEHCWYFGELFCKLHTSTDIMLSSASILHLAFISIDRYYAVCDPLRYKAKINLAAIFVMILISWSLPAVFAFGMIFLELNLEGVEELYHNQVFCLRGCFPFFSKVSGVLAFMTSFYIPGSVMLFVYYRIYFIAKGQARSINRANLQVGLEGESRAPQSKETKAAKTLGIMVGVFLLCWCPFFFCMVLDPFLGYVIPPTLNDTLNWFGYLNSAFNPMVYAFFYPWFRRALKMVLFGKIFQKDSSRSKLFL
Sequence of mouse TAAR1 (Q923Y8 whole entry): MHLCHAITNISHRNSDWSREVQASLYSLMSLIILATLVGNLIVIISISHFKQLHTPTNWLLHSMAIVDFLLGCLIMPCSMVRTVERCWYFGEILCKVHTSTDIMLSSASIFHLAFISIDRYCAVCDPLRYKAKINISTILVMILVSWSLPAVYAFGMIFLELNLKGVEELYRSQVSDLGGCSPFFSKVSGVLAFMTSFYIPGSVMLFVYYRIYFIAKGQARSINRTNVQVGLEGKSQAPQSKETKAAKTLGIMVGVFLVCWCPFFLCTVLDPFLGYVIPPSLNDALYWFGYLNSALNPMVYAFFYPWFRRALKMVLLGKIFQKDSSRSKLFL
Experimental for mouse TAAR1: Membrane Preparation and Radioligand Binding.
HEK-293 cells stably expressing mouse TAAR1 were maintained at 37° C. and 5% CO2 in DMEM high glucose medium, containing fetal calf serum (10%, heat inactivated for 30 min at 56° C.), penicillin/streptomycin (1%), and 375 μg/ml geneticin (Gibco). Cells were released from culture flasks using trypsin/EDTA, harvested, washed twice with ice-cold PBS (without Ca^2+ and Mg^2+), pelleted at 1,000 rpm for 5 min at 4° C., frozen and stored at −80° C. Frozen pellets were suspended in 20 ml HEPES-NaOH (20 mM, pH 7.4) containing 10 mM EDTA and homogenized with a Polytron (PT 6000, Kinematica) at 14,000 rpm for 20 s. The homogenate was centrifuged at 48,000×g for 30 min at 4° C. Subsequently, the supernatant was removed and discarded, and the pellet resuspended in 20 ml HEPES-NaOH (20 mM, pH 7.4) containing 0.1 mM EDTA using the Polytron (20 s at 14,000 rpm). This procedure was repeated and the final pellet resuspended in HEPES-NaOH containing 0.1 mM EDTA and homogenized using the Polytron. Typically, aliquots of 2 ml membrane portions were stored at −80° C. With each new membrane batch the dissociation constant (Kd) was determined via a saturation curve. […] Nonspecific binding was defined as the amount of ^3[H]—(S)-4-[(ethyl-phenyl-amino)-methyl]-4,5-dihydro-oxazol-2-ylamine bound in the presence of 10 M unlabeled ligand. All compounds were tested at a broad range of concentrations (10 pM to 10 μM) in duplicates. […] The 96 deep well plates were incubated for 1 hr at 4° C. Incubations were terminated by rapid filtration through Unifilter-96 plates (Packard Instrument Company) and glass filters GF/C (Perkin Elmer) presoaked for 1 hr in polyethylenimine (0.3%) and washed 3 times with 1 ml of cold binding buffer. After addition of 45 μl of Microscint 40 (PerkinElmer) the Unifilter-96 plate was sealed and after 1 hr the radioactivity counted using a TopCount Microplate Scintillation Counter (Packard Instrument Company).

As to `O=C(Nc1ccc(Cl)nc1)c1ccc(OC2CNC2)cc1Cl` [Example 53, 4-(azetidin-3-yloxy)-2-chloro-N-(6-chloro-3-pyridyl)benzamide], the values for the inhibition constant (Ki) at rat TAAR1 and on mouse TAAR1 were 2.43 µM and 55.2 nM, respectively.

As to `O=C(Nc1ccc(C=C2CNC2)cc1)c1ccnc(C(F)(F)F)c1` [Example 60, N-[4-(azetidin-3-ylidenemethyl)phenyl]-2-(trifluoromethyl)pyridine-4-carboxamide], the inhibition constant (Ki) is 0.0099 µM at rat TAAR1 and 8.4 nM at mouse TAAR1.

Regarding `CC(C)c1cc(C(=O)Nc2ccc(C[C@@H]3NC[C@@H]3F)cc2)n(C)n1` [Example 131, N-(4-(((2S,3S)-3-fluoroazetidin-2-yl)methyl)phenyl)-3-isopropyl-1-methyl-1H-pyrazole-5-carboxamide], the figures for the inhibition constant Ki at rat TAAR1 and at mouse TAAR1 were 0.126 µM and 119 nM, respectively.

On to `O=C(Nc1ccc(C=C2CNC2)cc1)c1ccc(Cl)nc1` [Example 65, N-[4-(azetidin-3-ylidenemethyl)phenyl]-6-chloro-pyridine-3-carboxamide], for which the values for the Ki on rat TAAR1 and on mouse TAAR1 were 0.023 µM and 2.6 nM, respectively.

Consider `CCOc1ccc(C(=O)Nc2ccc(OC3CNC3)cc2)nn1` [Example 76, N-[4-(azetidin-3-yloxy)phenyl]-6-ethoxy-pyridazine-3-carboxamide], for which the inhibition constant Ki on rat TAAR1 turned out to be 0.167 µM; on mouse TAAR1, 54 nM.

With `O=C(Nc1cc(F)c(C=C2CNC2)c(F)c1)c1ccc(Cl)nc1` [Example 84, N-(4-(azetidin-3-ylidenemethyl)-3,5-difluorophenyl)-6-chloronicotinamide], the values for the inhibition constant (Ki) at rat TAAR1 and at mouse TAAR1 were 0.0014 µM and 3.3 nM, respectively.

Regarding `O=C(Nc1ccc(C[C@@H]2CCN2)cc1)c1ccc(Cl)cc1` [Example 72, N-[4-[[(2R)-azetidin-2-yl]methyl]phenyl]-4-chloro-benzamide], the Ki on rat TAAR1 is 0.0686 µM; on mouse TAAR1 it was 3.9 nM.

Regarding `CCc1n[nH]c(C(=O)Nc2ccc(OC3CNC3)cc2)c1Br` [Example 47, N-[4-(azetidin-3-yloxy)phenyl]-4-bromo-3-ethyl-1H-pyrazole-5-carboxamide], the inhibitory constant (Ki) on rat TAAR1 was found to be 0.0468 µM; on mouse TAAR1 it was 3.9 nM.

In the case of `O=C(Nc1ccc(SC2CNC2)cc1)Nc1cccc(Cl)c1` [Example 112, 1-[4-(azetidin-3-ylsulfanyl)phenyl]-3-(3-chlorophenyl)urea], the Ki at rat TAAR1 was found to be 0.0111 µM; at mouse TAAR1 it was 11.1 nM.

In the case of `O=C(Nc1ccc(C=C2CNC2)cc1)Nc1cccc(Cl)c1` [Example 118, 1-[4-(azetidin-3-ylidenemethyl)phenyl]-3-(3-chlorophenyl)urea], the results for the inhibitory constant (Ki) at rat TAAR1 and at mouse TAAR1 were 0.0021 µM and 3.8 nM, respectively.

For the compound `O=C(Nc1ccc(CC2(F)CNC2)cc1)c1cnc(C(F)(F)F)cn1` [Example 70, N-[4-[(3-fluoroazetidin-3-yl)methyl]phenyl]-5-(trifluoromethyl)pyrazine-2-carboxamide], the Ki amounted to 0.0099 µM on rat TAAR1 and 6.9 nM at mouse TAAR1.

Turning to `FC1(Cc2ccccc2)CNC1` [Example 46, 3-benzyl-3-fluoro-azetidine], the inhibitory constant (Ki) was 0.552 µM at rat TAAR1 and 1990 nM on mouse TAAR1.

Regarding `O=C(Nc1ccc(C[C@H]2NC[C@H]2F)cc1)c1ccnc(C(F)(F)F)c1` [Example 121, N-(4-(((2R,3R)-3-fluoroazetidin-2-yl)methyl)phenyl)-2-(trifluoromethyl)isonicotinamide], the inhibition constant (Ki) at rat TAAR1 amounted to 0.809 µM; on mouse TAAR1 it was 7 nM.

Take `O=C(Nc1ccc(CC2(F)CNC2)cc1)c1ccc(Cl)nc1` [Example 54, 6-chloro-N-[4-[(3-fluoroazetidin-3-yl)methyl]phenyl]pyridine-3-carboxamide]: the Ki came to 0.0182 µM at rat TAAR1 and 3 nM at mouse TAAR1.

Turning to `F[C@H]1CN[C@@H]1Cc1ccccc1` [Example 93, (2R,3S)-2-benzyl-3-fluoroazetidine], the inhibition constant Ki on rat TAAR1 was 2.09 µM; on mouse TAAR1, 1280 nM.

With `CN(c1ccc(NC(=O)c2ccnc(C(F)(F)F)c2)cc1)C1CNC1` [Example 2, N-[4-[azetidin-3-yl(methyl)amino]phenyl]-2-(trifluoromethyl)pyridine-4-carboxamide], the values for the inhibitory constant (Ki) at rat TAAR1 and at mouse TAAR1 were 0.211 µM and 27.2 nM, respectively.

As for `O=C(Nc1ccc(OC2CNC2)cc1)c1[nH]nc(C2CC2)c1Br` [Example 31, N-[4-(azetidin-3-yloxy)phenyl]-4-bromo-3-cyclopropyl-1H-pyrazole-5-carboxamide], the figures for the inhibition constant (Ki) at rat TAAR1 and on mouse TAAR1 were 0.0151 µM and 3.6 nM, respectively.

`Cn1nc(C(=O)Nc2ccc(OC3CNC3)cc2)c(Cl)c1C(F)(F)F` [Example 43, N-[4-(azetidin-3-yloxy)phenyl]-4-chloro-1-methyl-5-(trifluoromethyl)pyrazole-3-carboxamide]: the Ki on rat TAAR1 stood at 0.0435 µM; on mouse TAAR1, 6.8 nM.

Regarding `O=C(Nc1ccc(C[C@H]2NC[C@H]2F)cc1)c1cnc(C(F)(F)F)nc1` [Example 123, N-(4-(((2R,3R)-3-fluoroazetidin-2-yl)methyl)phenyl)-2-(trifluoromethyl)pyrimidine-5-carboxamide], the inhibition constant Ki on rat TAAR1 was determined as 0.61 µM; on mouse TAAR1, 23.2 nM.

For `O=C(Nc1ccc(C[C@@H]2CCN2)cc1)c1cnc(C(F)(F)F)nc1` [Example 78, N-[4-[[(2R)-azetidin-2-yl]methyl]phenyl]-2-(trifluoromethyl)pyrimidine-5-carboxamide], the inhibition constant Ki at rat TAAR1 came out at 0.269 µM; on mouse TAAR1, 29.3 nM.

`O=C(Nc1ccc(OC2CNC2)cc1)c1nn(CC(F)(F)F)cc1Cl` [Example 21, N-[4-(azetidin-3-yloxy)phenyl]-4-chloro-1-(2,2,2-trifluoroethyl)pyrazole-3-carboxamide]: the inhibition constant (Ki) is 0.0207 µM on rat TAAR1 and 653 nM on mouse TAAR1.

In the case of `COc1ccc(NC(=O)Nc2ccc(CC3(F)CNC3)cc2)cc1` [Example 106, 1-[4-[(3-fluoroazetidin-3-yl)methyl]phenyl]-3-(4-methoxyphenyl)urea], the inhibitory constant (Ki) was found to be 0.0239 µM at rat TAAR1 and 1.9 nM on mouse TAAR1.

On to `O=C(Nc1ccc(CC2CNC2)cc1)Nc1cccc(Cl)c1` [Example 115], for which the inhibitory constant (Ki) was determined as 0.0138 µM at rat TAAR1 and 27.2 nM at mouse TAAR1.

`O=C(Nc1ccc(C=C2CNC2)cc1)Nc1ccc(C(F)(F)F)cc1` [Example 116, 1-[4-(azetidin-3-ylidenemethyl)phenyl]-3-[4-(trifluoromethyl)phenyl]urea]: the Ki at rat TAAR1 worked out at 0.0016 µM; on mouse TAAR1, 3.7 nM.

For the compound `COc1ccc(NC(=O)Nc2ccc(OC3CNC3)cc2)cc1` [Example 108, 1-[4-(azetidin-3-yloxy)phenyl]-3-(4-methoxyphenyl)urea], the results for the Ki on rat TAAR1 and on mouse TAAR1 were 0.0269 µM and 108 nM, respectively.

Take `COc1cc(C(=O)Nc2ccc(CC3(F)CNC3)cc2)nc(C(F)(F)F)n1` [Example 68, 6 N-[4-[(3-fluoroazetidin-3-yl)methyl]phenyl]-6-methoxy-2-(trifluoromethyl)pyrimidine-4-carboxamide]: the values for the inhibitory constant (Ki) on rat TAAR1 and on mouse TAAR1 were 0.0071 µM and 6.4 nM, respectively.

Consider `O=C(Nc1ccc(OC2CNC2)cc1)c1cc(C2CC2)n[nH]1` [Example 10, N-(4-(azetidin-3-yloxy)phenyl)-3-cyclopropyl-1H-pyrazole-5-carboxamide], for which the values for the Ki at rat TAAR1 and on mouse TAAR1 were 0.0887 µM and 414 nM, respectively.

On to `O=C(Nc1ccc(OC2CNC2)cc1F)c1[nH]nc(C2CC2)c1Cl` [Example 36, N-[4-(azetidin-3-yloxy)-2-fluoro-phenyl]-4-chloro-3-cyclopropyl-1H-pyrazole-5-carboxamide], for which the Ki came out at 0.029 µM at rat TAAR1 and 13.9 nM on mouse TAAR1.

As to `O=C(Nc1ccc(CC2(F)CNC2)cc1)c1n[nH]c(C2CC2)c1Cl` [Example 56, 4-chloro-3-cyclopropyl-N-[4-[(3-fluoroazetidin-3-yl)methyl]phenyl]-1H-pyrazole-5-carboxamide], the Ki at rat TAAR1 is 0.0151 µM; on mouse TAAR1, 3.4 nM.

As for `O=C(Nc1ccc(OC2CNC2)cc1F)c1cnc(C2CC2)nc1` [Example 38, N-[4-(azetidin-3-yloxy)-2-fluoro-phenyl]-2-cyclopropyl-pyrimidine-5-carboxamide], the Ki at rat TAAR1 is 0.853 µM; at mouse TAAR1, 35.1 nM.

Regarding `O=C(Nc1ccc(SC2CNC2)cc1)c1cnc(C(F)(F)F)nc1` [Example 45, N-[4-(azetidin-3-ylsulfanyl)phenyl]-2-(trifluoromethyl)pyrimidine-5-carboxamide], the values for the Ki at rat TAAR1 and on mouse TAAR1 were 0.129 µM and 35.5 nM, respectively.

With `O=C(Nc1ccc(CC2(F)CNC2)cc1)c1ccc(Cl)cc1` [Example 52, 4-chloro-N-[4-[(3-fluoroazetidin-3-yl)methyl]phenyl]benzamide], the Ki on rat TAAR1 worked out at 0.0035 µM; on mouse TAAR1 it was 0.9 nM.

Consider `F[C@H]1CN[C@H]1Cc1ccccc1` [Example 90, (2S,3S)-2-benzyl-3-fluoroazetidine], for which the Ki at rat TAAR1 worked out at 0.274 µM; on mouse TAAR1 it was 4380 nM.

On to `O=C(Nc1ccc(SC2CNC2)cc1)c1[nH]nc(C2CC2)c1Cl` [Example 35, N-[4-(azetidin-3-ylsulfanyl)phenyl]-4-chloro-3-cyclopropyl-1H-pyrazole-5-carboxamide], for which the Ki on rat TAAR1 was found to be 0.0466 µM; at mouse TAAR1, 3.1 nM.

`Cn1nc(C(F)(F)F)c(Cl)c1C(=O)Nc1ccc(OC2CNC2)cc1` [Example 29, N-[4-(azetidin-3-yloxy)phenyl]-4-chloro-2-methyl-5-(trifluoromethyl)pyrazole-3-carboxamide]: the Ki was 0.0503 µM at rat TAAR1 and 29 nM at mouse TAAR1.

For the compound `CCN(C[C@H]1COC(N)=N1)c1ccccc1` [reference compound], the Kd at rat TAAR1 (read-out: dissociation constant (Kd) of the radioligand, rat TAAR1 membranes, saturation curve, usual value) is approximately 2.3 nM; on mouse TAAR1 (read-out: dissociation constant (Kd) of the radioligand, mouse TAAR1 membranes, saturation curve, usual value) it was approximately 0.7 nM.

Turning to `O=C(Nc1ccc(C[C@H]2CCN2)cc1)c1ccc(Cl)cc1` [Example 71, N-[4-[[(2S)-azetidin-2-yl]methyl]phenyl]-4-chloro-benzamide], the Ki on rat TAAR1 worked out at 0.0065 µM; on mouse TAAR1, 1 nM.

For `O=C(Nc1ccc(OC2CNC2)cc1)c1[nH]nc(C2CC2)c1Cl` [Example 13, N-(4-(azetidin-3-yloxy)phenyl)-4-chloro-3-cyclopropyl-1H-pyrazole-5-carboxamide], the Ki amounted to 0.0178 µM on rat TAAR1 and 3.3 nM on mouse TAAR1.
